Converted amounts (≈) assume the structure as drawn.
What was measured:
[1] = tested on: HL-60; assay: Cytotoxicity against human HL60 cells after 48 hrs by MTT assay; assay type: functional, cell-based; conditions: HL-60, 48 h
[2] = tested on: HCT-116; assay: Cytotoxicity against human HCT116 cells after 48 hrs by MTT assay; assay type: functional, cell-based; conditions: HCT-116, 48 h

| SMILES | IC50 [1] [µg/mL] | IC50 [2] [µg/mL] |
| --- | --- | --- |
| COc1ccc(C[C@H]2C(=O)N[C@@H](C)C(=O)N(C)[C@H]3Cc4ccc(cc4)Nc4cc(ccc4OC)C[C@@H](C(=O)N[C@H](C)C(=O)N[C@@H](C)C(=O)N2C)N(C)C3=O)cc1 | 0.018 (≈ 0.0234 µM) | 0.017 (≈ 0.0221 µM) |
| COc1ccc(C[C@H]2C(=O)N[C@@H](C)C(=O)N(C)[C@H]3Cc4ccc(cc4)Oc4cc(ccc4OC)C[C@@H](C(=O)N[C@H](C)C(=O)N[C@@H](C)C(=O)N2C)N(C)C3=O)cc1 | 0.0025 (≈ 0.00324 µM) | 0.0033 (≈ 0.00428 µM) |
